Melting point data for 26 molecules are collected here from US7179823B1, “5-membered n-heterocyclic compounds with hypoglycemic and hypolipidemic activity” (Takeda Pharmaceutical Company Limited, priority 1999, dated 2007).

Usually melting point stands for the temperature of the solid-liquid transition. The molecule `Cc1oc(-c2ccccc2)nc1COc1ccc(Cn2cc(/C=C/C(=O)O)c(-c3ccccc3)c2)cc1` [Example 5, (E)-3-[1-[4-(5-methyl-2-phenyl-4-oxazolylmethoxy)benzyl]-4-phenyl-3-pyrrolyl]propenoic acid] gave a melting point of 154 to 155 °C.

The molecule `O=C(O)CCc1cn(Cc2ccc(OCc3ccccc3)cc2)cc1-c1ccccc1` [Example 10, 3-[1-(4-benzyloxybenzyl)-4-phenyl-3-pyrrolyl]propionic acid] had a melting point of 130 to 131 °C.

As to `O=C(O)CCc1cn(Cc2ccc(OCc3ccccn3)cc2)cc1-c1ccccc1` [Example 11, 3-[4-phenyl-1-[4-(2-pyridylmethoxy)benzyl]-3-pyrrolyl]propionic acid], the melting point lay within 109 to 110 °C.

As to `O=C(O)CCc1cn(Cc2ccc(OCc3ccncc3)cc2)cc1-c1ccccc1` [Example 13, 3-[4-phenyl-1-[4-(4-pyridylmethoxy)benzyl]-3-pyrrolyl]propionic acid], the melting point was 124 to 125 °C.

The molecule `Cc1oc(-c2ccccc2)nc1CCOc1ccc(Cn2cc(CCC(=O)O)c(-c3ccccc3)c2)cc1` [Example 14, 3-[1-[4-[2-(5-methyl-2-phenyl-4-oxazolyl)ethoxy]benzyl]-4-phenyl-3-pyrrolyl]propionic acid] gave a melting point of 147 to 148 °C.

As to `O=C(O)CCc1cn(Cc2ccc(OCc3csc(-c4cnccn4)n3)cc2)cc1-c1ccccc1` [Example 16, 3-[4-phenyl-1-[4-[2-(2-pyrazinyl)-4-thiazolylmethoxy]benzyl]-3-pyrrolyl]propionic acid], the melting point was in the range of 137 to 138 °C.

As to `O=C(O)CCc1cn(Cc2ccc(OCc3ccoc3)cc2)cc1-c1ccccc1` [Example 18, 3-[1-[4-(3-furylmethoxy)benzyl]-4-phenyl-3-pyrrolyl]propionic acid], the melting point was 110 to 111 °C.

`O=C(O)CCc1cn(Cc2ccc(OCc3cccs3)cc2)cc1-c1ccccc1` [Example 20, 3-[4-phenyl-1-[4-(2-thienylmethoxy)benzyl]-3-pyrrolyl]propionic acid] returned a melting point of 127 to 128 °C.

In turn, `O=C(O)CCc1cn(Cc2ccc(OCc3ccsc3)cc2)cc1-c1ccccc1` [Example 22, 3-[4-phenyl-1-[4-(3-thienylmethoxy)benzyl]-3-pyrrolyl]propionic acid] returned a melting point of 118 to 119 °C.

Take `Cc1ncccc1COc1ccc(Cn2cc(CCC(=O)O)c(-c3ccccc3)c2)cc1` [Example 26, 3-[1-[4-(2-methyl-3-pyridylmethoxy)benzyl]-4-phenyl-3-pyrrolyl]propionic acid]: the melting point lay within 158 to 159 °C.

`Cc1sc(-c2ccccc2)nc1COc1ccc(Cn2cc(CCC(=O)O)c(-c3ccccc3)c2)cc1` [Example 28, 3-[1-[4-(5-methyl-2-phenyl-4-thiazolylmethoxy)benzyl]-4-phenyl-3-pyrrolyl]propionic acid] registered a melting point of 157 to 158 °C.

Turning to `O=C(O)CCc1cn(Cc2ccc(OCc3csc(-c4ccccn4)n3)cc2)cc1-c1ccccc1` [Example 32, 3-[4-phenyl-1-[4-[2-(2-pyridyl)-4-thiazolylmethoxy)benzyl]-3-pyrrolyl]propionic acid], the melting point was in the range of 117 to 118 °C.

For the molecule `O=C(O)CCc1cn(Cc2ccc(OCc3csc(-c4ccncc4)n3)cc2)cc1-c1ccccc1` [Example 34, 3-[4-phenyl-1-[4-[2-(4-pyridyl)-4-thiazolylmethoxy)benzyl]-3-pyrrolyl]propionic acid], the melting point is 149 to 150 °C.

Molecule `O=C(O)CCc1cn(Cc2ccc(OCc3cccc(-c4cnccn4)c3)cc2)cc1-c1ccccc1` [Example 36, 3-[4-phenyl-1-[4-[3-(2-pyrazinyl)benzyloxy]benzyl]-3-pyrrolyl]propionic acid] displayed a melting point of 91 to 92 °C.

`Cc1nc(COc2ccc(Cn3cc(CCC(=O)O)c(-c4ccccc4)c3)cc2)cs1` [Example 42, 3-[1-[4-(2-methyl-4-thiazolylmethoxy]benzyl]-4-phenyl-3-pyrrolyl]propionic acid]: the melting point fell in the range of 113 to 114 °C.

`O=C(O)CCc1cn(Cc2ccc(OCc3csc(-c4cccnc4)n3)cc2)cc1-c1ccccc1` [Example 46, 3-[4-phenyl-1-[4-[2-(3-pyridyl)-4-thiazolylmethoxy]benzyl]-3-pyrrolyl]propionic acid] came in with a melting point of 118 to 119 °C.

Molecule `CN(CCOc1ccc(Cn2cc(CCC(=O)O)c(-c3ccccc3)c2)cc1)c1ccccn1` [Example 49, 3-[1-[4-[2-[N-methyl-N-(2-pyridyl)amino]ethoxy]benzyl]-4-phenyl-3-pyrrolyl]propionic acid] gave a melting point of 110 to 111 °C.

With `O=C(O)c1cn(Cc2cccc(Oc3ccccc3)c2)nc1-c1ccccc1` [Example 50, 1-(3-phenoxybenzyl)-3-phenyl-1H-pyrazole-4-carboxylic acid], the melting point fell in the range of 148 to 149 °C.

Molecule `CCOC(=O)/C=C/c1cn(Cc2ccc3cc(OCc4ccccc4)ccc3c2)cc1-c1ccccc1` [Example 52, ethyl(E)-3-[1-(6-benzyloxy-2-naphthylmethyl)-4-phenyl-3-pyrrolyl]propenoate] displayed a melting point of 119 to 120 °C.

Turning to `Cc1oc(-c2ccccc2)nc1COc1ccc2cc(Cn3cc(CCC(=O)O)c(-c4ccccc4)c3)ccc2c1` [Example 54, 3-[1-[6-(5-methyl-2-phenyl-4-oxazolylmethoxy)-2-naphthylmethyl]-4-phenyl-3-pyrrolyl]propionic acid], the melting point was in the range of 122 to 123 °C.

Molecule `O=C(O)CCc1cn(Cc2ccc3cc(OCc4ccccc4F)ccc3c2)cc1-c1ccccc1` [Example 56, 3-[1-[6-(2-fluorobenzyloxy)-2-naphthylmethyl]-4-phenyl-3-pyrrolyl]propionic acid] came in with a melting point of 143 to 144 °C.

On to `O=C(O)CCc1cn(Cc2ccc3cc(OCc4cccnc4)ccc3c2)cc1-c1ccccc1` [Example 58, 3-[4-phenyl-1-[6-(3-pyridylmethoxy)-2-naphthylmethyl]-3-pyrrolyl]propionic acid], for which the melting point was in the range of 158 to 159 °C.

Take `Cc1ncccc1COc1ccc2cc(Cn3cc(CCC(=O)O)c(-c4ccccc4)c3)ccc2c1` [Example 60, 3-[1-[6-(2-methyl-3-pyridylmethoxy)-2-naphthylmethyl]-4-phenyl-3-pyrrolyl]propionic acid]: the melting point is 163 to 164 °C.

The molecule `Cc1oc(-c2ccccc2)nc1COc1ccc(Cn2cc(CCC(=O)O)c(-c3ccccn3)c2)cc1` [Example 64, 3-[1-[4-(5-methyl-2-phenyl-4-oxazolylmethoxy)benzyl]-4-(2-pyridyl)-3-pyrrolyl]propionic acid] displayed a melting point of 155 to 156 °C.

The molecule `COc1cc(Cn2cc(CCC(=O)O)c(-c3ccccc3)c2)cc(OCc2csc(-c3cnccn3)n2)c1` [Example 71, 3-[1-[3-methoxy-5-[2-(2-pyrazinyl)-4-thiazolylmethoxy]benzyl]-4-phenyl-3-pyrrolyl]propionic acid] displayed a melting point of 111 to 112 °C.

As for `CCOc1cc(Cn2cc(CCC(=O)O)c(-c3ccccc3)c2)cc(OCc2csc(-c3cnccn3)n2)c1` [Example 73, 3-[1-[3-ethoxy-5-[2-(2-pyrazinyl)-4-thiazolylmethoxy]benzyl]-4-phenyl-3-pyrrolyl]propionic acid], the melting point was 97 to 98 °C.
